Data reported in ChEMBL document CHEMBL1201862, “PubChem BioAssay data set” (2004).
“And” between values parts separate entries of the source, which are not always exact repeats. Identical values can stand only once.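 Results reflect a 48-hour exposure of cells in 96-well plates to compound at five concentrations. Here, GI50 denotes the concentration required for 50% inhibition of growth.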 The source made the active and inactive calls. Cut-off read from the data, not from the text of the source: active = GI50 up to about 1.1 µM and inactive = higher.

What was measured:
Assay in all cases: NCI anticancer screen, dose series, 48 h
[1] = system: 786-0
[2] = system: LOX IMVI
[3] = system: MCF7
[4] = system: UACC-257
[5] = system: SNB-75
[6] = system: UO-31
[7] = system: SF-268
[8] = system: TK-10
[9] = system: HCC 2998
[10] = system: NCI-H23
[11] = system: NCI/ADR-RES
[12] = system: ACHN
[13] = system: OVCAR-8
[14] = system: U-251
[15] = system: MOLT-4
[16] = system: Hs-578T
[17] = system: SK-OV-3
[18] = system: A549
[19] = system: HOP-62
[20] = system: Malme-3M
[21] = system: NCI-H226
[22] = system: SK-MEL-2
[23] = system: CAKI-1
[24] = system: MDA-MB-231
[25] = system: EKVX
[26] = system: DU-145
[27] = system: RXF 393
[28] = system: COLO 205
[29] = system: HT-29
[30] = system: MDA-N
[31] = system: SNB-19
[32] = system: OVCAR-5
[33] = system: CCRF-CEM
[34] = system: HCT-116
[35] = system: OVCAR-3
[36] = system: K562
[37] = system: RPMI-8226
[38] = system: UACC-62
[39] = system: SK-MEL-5
[40] = system: SN12C
[41] = system: MDA-MB-435
[42] = system: SF-295
[43] = system: PC-3
[44] = system: M14
[45] = system: SR
[46] = system: SW-620
[47] = system: A498
[48] = system: SK-MEL-28
[49] = system: KM12
[50] = system: HCT-15
[51] = system: IGROV-1
[52] = system: OVCAR-4
[53] = system: SF-539
[54] = system: HL-60
[55] = system: NCI-H522
[56] = system: NCI-H460
[57] = system: T47D
[58] = system: HOP-92

In the case of `O=C1N/C(=N/N=C\C(O)C(O)C(O)CO)N/C1=C/c1ccccc1` (centres undefined), the GI50 [1] is reported as 64 µM (inactive), the GI50 [2] is reported as > 100 µM (inactive) and the GI50 [3] is reported as 34.4 µM (inactive) and 32.6 µM (inactive). For the same molecule, the GI50 [4] was > 100 µM (inactive), the GI50 [5] was > 100 µM (inactive) and the GI50 [6] was > 100 µM (inactive). For the same molecule, the GI50 [7] was > 100 µM (inactive) and 62.7 µM (inactive), the GI50 [8] was > 100 µM (inactive) and the GI50 [9] was 51.6 µM (inactive). The GI50 [10] was > 100 µM (inactive), the GI50 [11] was > 100 µM (inactive) and the GI50 [12] was > 100 µM (inactive). For the same molecule, the GI50 [13] was 65 µM (inactive), the GI50 [14] was > 100 µM (inactive) and 52.5 µM (inactive) and the GI50 [15] was 24 µM (inactive) and 39.6 µM (inactive). For the same molecule, the GI50 [16] was > 100 µM (inactive), the GI50 [17] was > 100 µM (inactive) and the GI50 [18] was > 100 µM (inactive). The GI50 [19] was > 100 µM (inactive), the GI50 [20] was 82 µM (inactive) and the GI50 [21] was > 100 µM (inactive). For the same molecule, the GI50 [22] was > 100 µM (inactive), the GI50 [23] was > 100 µM (inactive) and the GI50 [24] was 60 µM (inactive). For the same molecule, the GI50 [25] was > 100 µM (inactive) and 85.7 µM (inactive), the GI50 [26] was > 100 µM (inactive) and the GI50 [27] was > 100 µM (inactive). The GI50 [28] was > 100 µM (inactive), the GI50 [29] was 50.1 µM (inactive) and the GI50 [30] was 53 µM (inactive). For the same molecule, the GI50 [31] was > 100 µM (inactive) and the GI50 [32] was > 100 µM (inactive).
With `COc1cc2oc(=O)cc(C)c2cc1OC` the GI50 [1] was > 100 µM (inactive), the GI50 [2] was > 100 µM (inactive) and the GI50 [3] was > 100 µM (inactive). For the same molecule, the GI50 [4] was > 100 µM (inactive), the GI50 [33] was > 100 µM (inactive) and the GI50 [5] was > 100 µM (inactive). The GI50 [6] was 66.7 µM (inactive), the GI50 [7] was > 100 µM (inactive) and the GI50 [34] was > 100 µM (inactive). The GI50 [8] was > 100 µM (inactive), the GI50 [10] was > 100 µM (inactive) and the GI50 [35] was > 100 µM (inactive). For the same molecule, the GI50 [36] was > 100 µM (inactive), the GI50 [11] was > 100 µM (inactive) and the GI50 [37] was > 100 µM (inactive). For the same molecule, the GI50 [38] was > 100 µM (inactive), the GI50 [12] was > 100 µM (inactive) and the GI50 [13] was > 100 µM (inactive). For the same molecule, the GI50 [14] was > 100 µM (inactive), the GI50 [15] was > 100 µM (inactive) and the GI50 [16] was > 100 µM (inactive). The GI50 [17] was > 100 µM (inactive), the GI50 [18] was > 100 µM (inactive) and the GI50 [39] was > 100 µM (inactive). The GI50 [19] was > 100 µM (inactive), the GI50 [40] was > 100 µM (inactive) and the GI50 [41] was > 100 µM (inactive). For the same molecule, the GI50 [42] was > 100 µM (inactive), the GI50 [20] was > 100 µM (inactive) and the GI50 [21] was > 100 µM (inactive). The GI50 [22] was > 100 µM (inactive), the GI50 [24] was > 100 µM (inactive) and the GI50 [25] was > 100 µM (inactive). For the same molecule, the GI50 [43] was > 100 µM (inactive), the GI50 [26] was > 100 µM (inactive) and the GI50 [44] was > 100 µM (inactive). The GI50 [45] was > 100 µM (inactive), the GI50 [46] was > 100 µM (inactive) and the GI50 [28] was > 100 µM (inactive). The GI50 [47] was 40.2 µM (inactive), the GI50 [48] was > 100 µM (inactive) and the GI50 [49] was > 100 µM (inactive). For the same molecule, the GI50 [50] was over 100 µM, the GI50 [29] was > 100 µM (inactive) and the GI50 [51] was > 100 µM (inactive). The GI50 [52] was > 100 µM (inactive), the GI50 [30] was > 100 µM (inactive) and the GI50 [53] was > 100 µM (inactive). For the same molecule, the GI50 [31] was > 100 µM (inactive) and the GI50 [32] was > 100 µM (inactive).
For `O=[N+]([O-])c1cc2c(c3nonc13)OCCCCO2`, the GI50 [1] was 2.02 µM (inactive), the GI50 [2] was 2.81 µM (inactive) and the GI50 [3] was 7.76 µM (inactive). For the same molecule, the GI50 [4] was 15.5 µM (inactive), the GI50 [33] was 1.5 µM (inactive) and the GI50 [54] was 2.55 µM (inactive). For the same molecule, the GI50 [55] was 4.39 µM (inactive), the GI50 [5] was 10.6 µM (inactive) and the GI50 [6] was 4.19 µM (inactive). The GI50 [7] was 3.37 µM (inactive), the GI50 [34] was 1.75 µM (inactive) and the GI50 [8] was 21.8 µM (inactive). The GI50 [9] was 17.3 µM (inactive), the GI50 [10] was 10.2 µM (inactive) and the GI50 [35] was 2.19 µM (inactive). For the same molecule, the GI50 [36] was 3.64 µM (inactive), the GI50 [11] was 10.5 µM (inactive) and the GI50 [37] was 3.7 µM (inactive). The GI50 [38] was 5.77 µM (inactive), the GI50 [12] was 6.22 µM (inactive) and the GI50 [13] was 4.36 µM (inactive). The GI50 [14] was 7.1 µM (inactive), the GI50 [15] was 3.99 µM (inactive) and the GI50 [16] was 12.3 µM (inactive). The GI50 [17] was 26.4 µM (inactive), the GI50 [18] was 10.3 µM (inactive) and the GI50 [39] was 8.61 µM (inactive). For the same molecule, the GI50 [56] was 3.76 µM (inactive), the GI50 [19] was 4.37 µM (inactive) and the GI50 [40] was 4.6 µM (inactive). The GI50 [41] was 5.25 µM (inactive), the GI50 [42] was 17.5 µM (inactive) and the GI50 [20] was 3.66 µM (inactive). The GI50 [21] was 14.4 µM (inactive), the GI50 [22] was 13.8 µM (inactive) and the GI50 [23] was 14.3 µM (inactive). The GI50 [24] was 3.31 µM (inactive), the GI50 [25] was 18.2 µM (inactive) and the GI50 [43] was 14.9 µM (inactive). The GI50 [26] was 15 µM (inactive), the GI50 [44] was 5 µM (inactive) and the GI50 [27] was 7.74 µM (inactive). For the same molecule, the GI50 [57] was 26.5 µM (inactive), the GI50 [46] was 5.86 µM (inactive) and the GI50 [28] was 4.95 µM (inactive). The GI50 [47] was 24.9 µM (inactive), the GI50 [58] was 12.7 µM (inactive) and the GI50 [48] was 9.89 µM (inactive). For the same molecule, the GI50 [49] was 4.37 µM (inactive), the GI50 [50] was 2.94 µM and the GI50 [29] was 3.88 µM (inactive). For the same molecule, the GI50 [51] was 9.16 µM (inactive), the GI50 [52] was 14.2 µM (inactive) and the GI50 [30] was 4.13 µM (inactive). For the same molecule, the GI50 [53] was 2.82 µM (inactive), the GI50 [31] was 13.4 µM (inactive) and the GI50 [32] was 12.1 µM (inactive).
